In the supplement of paper PMC10307832:

Columns and labels:
Assay in all cases: relative viability (nuclei count vs DMSO), 5 days (fraction); higher = more cells survive
[1] = compound: CC(=O)c1c(C)c2cnc(Nc3ccc(N4CCNCC4)cn3)nc2n(C2CCCC2)c1=O [Palbociclib]
Summary of the method: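 Cells of lung cancer lines were placed in 1536-well plates and kept overnight at 37 °C. Pinning then delivered five library-drug doses (not always all listed), spaced by √10, onto plates anchored with vehicle, and the cells were left 5 days without changing medium. One step fixed, permeabilised and stained them with Hoechst, and MetaXpress counted nuclei in 4× images. Viability, as a median over plates, is treated-well nuclei divided by vehicle-well nuclei, with acceptance only at control CV below 25% and at least one doubling.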

[2] = compound: CC(=O)c1c(C)c2cnc(Nc3ccc(N4CCNCC4)cn3)nc2n(C2CCCC2)c1=O [Palbociclib] + Cc1nc(Nc2ncc(C(=O)Nc3c(C)cccc3Cl)s2)cc(N2CCN(CCO)CC2)n1 [Dasatinib] (partner 0.075 µM)
Summary of the method: (§1)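 Relative viability divides the nuclei count in treated wells by that in vehicle wells. Lung cancer cell lines were seeded in 1536-well plates, dosed by pin tool the next day, and fixed and stained after 5 days in one step with final 0.05% Triton X-100, 1% formaldehyde and 1 ug/ml Hoechst. Dosing was a single drug or a fixed anchor-drug dose plus five library-drug doses (not always all listed) in √10 steps, and values are medians of duplicate plates imaged at 4×.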

[3] = compound: CC(=O)c1c(C)c2cnc(Nc3ccc(N4CCNCC4)cn3)nc2n(C2CCCC2)c1=O [Palbociclib] + Nc1ncn([C@H]2C[C@H](O)[C@@H](CO)O2)c(=O)n1 [Decitabine] (partner 2 µM)
Summary of the method: as §1

Cell Line | relative viability ([1]; 0.01 µM) | relative viability ([1]; 0.03162 µM) | relative viability ([1]; 0.1 µM) | relative viability ([1]; 0.3162 µM) | relative viability ([1]; 0.5 µM, anchor plate) | relative viability ([1]; 1 µM) | relative viability ([2]; first compound 0.01 µM) | relative viability ([2]; first compound 0.03162 µM) | relative viability ([2]; first compound 0.1 µM) | relative viability ([2]; first compound 0.3162 µM) | relative viability ([2]; first compound 1 µM) | relative viability ([3]; first compound 0.01 µM) | relative viability ([3]; first compound 0.03162 µM) | relative viability ([3]; first compound 0.1 µM) | relative viability ([3]; first compound 0.3162 µM) | relative viability ([3]; first compound 1 µM)
201T | 1.02 | 0.863 | 0.9 | 0.867 | 0.349 | 0.571 | 0.54 | 0.494 | 0.579 | 0.388 | 0.324 | 0.827 | 0.836 | 0.836 | 0.834 | 0.665
A549 | 0.983 | 0.71 | 0.68 | 0.692 |  | 0.448 |  |  |  |  |  | 0.269 |  | 0.245 | 0.274 | 0.302
A-427 | 0.941 | 0.775 | 0.755 | 0.727 | 0.529 | 0.534 | 0.672 | 0.607 | 0.561 | 0.523 | 0.485 | 0.6 | 0.581 | 0.489 | 0.539 | 0.519
ABC-1 | 1.02 | 0.853 | 0.81 | 0.785 | 0.755 | 0.686 | 0.546 | 0.537 | 0.493 | 0.457 | 0.377 | 0.948 | 1.03 | 1.23 | 0.978 | 0.873
BEN | 1.04 | 0.813 | 0.778 | 0.814 | 0.487 | 0.476 | 0.39 | 0.324 | 0.229 | 0.235 | 0.208 | 0.692 | 0.521 | 0.596 | 0.68 | 0.422
CAL-12T | 1 | 0.851 | 0.75 | 0.651 | 0.446 | 0.611 | 0.486 | 0.383 | 0.248 | 0.273 | 0.22 |  |  |  |  | 
COR-L23 | 1.05 | 0.886 | 0.739 | 0.808 | 0.293 | 0.528 | 0.575 | 0.431 | 0.241 | 0.334 | 0.2 | 0.414 | 0.369 | 0.322 | 0.363 | 0.33
COR-L 105 | 1 | 0.724 | 0.616 | 0.651 | 0.408 | 0.473 | 0.339 | 0.312 | 0.274 | 0.326 | 0.253 | 0.777 | 0.629 | 0.554 | 0.604 | 0.452
Calu-6 | 1.06 | 0.919 | 0.833 | 0.79 |  | 0.588 |  |  |  |  |  |  |  |  |  | 
ChaGo-K-1 | 1.02 | 0.778 | 1.04 | 1.02 | 0.939 | 1.02 | 0.545 | 0.539 | 0.615 | 0.594 | 0.593 | 0.517 |  | 0.554 | 0.522 | 0.518
EKVX | 1.12 | 0.733 | 0.766 | 0.882 | 0.394 | 0.544 | 0.467 | 0.444 | 0.502 | 0.455 | 0.372 | 0.383 |  | 0.281 | 0.307 | 0.293
EMC-BAC-2 | 0.999 | 0.749 | 0.791 | 0.736 | 0.514 | 0.589 | 0.3 | 0.258 | 0.302 | 0.32 | 0.256 | 1.02 | 0.818 | 0.869 | 0.783 | 0.604
EPLC-272H | 1.07 |  | 0.798 | 0.828 | 0.33 | 0.456 | 0.328 |  | 0.345 | 0.249 | 0.198 | 0.4 |  | 0.322 | 0.309 | 0.324
H3255 | 1.04 | 0.922 | 0.823 | 0.904 | 0.316 | 0.519 | 0.347 | 0.386 | 0.338 | 0.322 | 0.277 | 0.733 | 0.514 | 0.522 | 0.525 | 0.384
HARA | 1.1 |  | 0.746 | 0.652 | 0.262 | 0.392 | 0.27 |  | 0.24 | 0.193 | 0.149 | 0.699 | 0.474 | 0.418 | 0.319 | 0.449
HCC-15 | 0.986 |  | 0.915 | 0.828 | 0.717 | 0.732 | 0.622 |  | 0.516 | 0.598 | 0.439 | 0.662 |  | 0.535 | 0.523 | 0.498
HCC-44 | 0.891 | 0.82 | 0.969 | 0.96 | 0.962 | 1.02 |  |  |  |  |  | 0.944 | 0.866 | 0.948 | 0.873 | 1
HCC-78 | 0.998 | 0.756 | 0.698 | 0.703 | 0.477 | 0.385 | 0.348 | 0.361 | 0.348 | 0.26 | 0.215 | 0.651 | 0.629 | 0.773 | 0.694 | 0.429
HCC-366 | 1 |  | 0.977 | 1 | 0.383 | 0.859 | 0.611 |  | 0.605 | 0.444 | 0.174 | 0.338 |  | 0.33 | 0.334 | 0.342
HCC-827 | 1.04 | 0.904 | 0.887 | 0.912 | 0.483 | 0.786 | 0.296 | 0.234 | 0.311 | 0.264 | 0.288 | 0.369 | 0.294 | 0.289 | 0.314 | 0.265
HOP-62 | 0.953 |  | 0.87 | 0.795 | 0.451 | 0.663 | 0.704 |  | 0.57 | 0.525 | 0.463 | 0.179 |  | 0.237 | 0.207 | 0.257
IA-LM | 0.901 | 0.54 | 0.559 | 0.428 |  | 0.162 |  |  |  |  |  |  |  |  |  | 
LC-2-ad | 0.902 |  | 0.816 | 0.73 | 0.479 | 0.518 | 0.459 |  | 0.541 | 0.446 | 0.325 | 0.82 | 0.781 | 0.758 | 0.691 | 0.756
LCLC-97TM1 | 1.03 |  | 0.657 | 0.741 | 0.225 | 0.272 | 0.694 | 0.572 | 0.738 | 0.585 | 0.329 | 0.23 |  | 0.231 | 0.239 | 0.198
